The compounds below were run on HepG2 cells (assay: Hepatoprotective effect against acetaminophen-induced hepatotoxicity in HepG2 cells (MTT)). Details: not given.
Format: cell-based, Human
Experimental: Human hepatocellular carcinoma HepG2 cells were obtained from the Bioresource Collection and Research Center (BCRC, Hsinchu, Taiwan). Cells culture was conducted with a complete medium consisting of DMEM (Dulbecco's Modified Eagle Medium, Gibco), 10% (v/v) fetal bovine serum (FBS) (Gibco), and 1% (v/v) antibiotic -antimycotic […] (Gibco, 15240062). Upon reaching at 80% confluence, cells were rinsed with PBS and detached using trypsin -EDTA (Gibco, 25200072) at 37 °C for 5 minutes. Subsequently, cells were seeded into specialized 96 -well plates (3 × 10^4/well, 100 µL/well) and incubated for 24 hours at 37 °C with 5% CO2. […]
control cells were used as a reference under the same conditions. The maximum absorbance value depended on the solvent used in the sample solution, and the percentage viability of cells was determined using the formula: […]. […]
3.9.2. Assess hepatoprotective effects of compounds […]
using an acetaminophen-induced hepatotoxicity HepG2 model. Cells were initially seeded in 96 -well plates at a density of 3 × 10^4 cells/well and then incubated under identical conditions with 5% CO 2 for 24 hours. Following this, cells were exposed to the test samples. After 8 hours, hepatotoxicity was induced using acetaminophen (Sigma Aldrich, A7085) at a concentration of 6 mM. The protective effects were assessed by determining cell viability using the MTT method 36 hours post - acetaminophen induc tion. Silymarin (at concentration of 50 μg/mL) was used as positive control. […]
With `COc1cc2c(cc1O[C@@H]1O[C@H](CO)[C@@H](O)[C@H](O)[C@H]1O)[C@@]1(O)C(=O)C[C@H](O)C[C@@H]1CC2` [Compound 1, elatostemanoside A] the “hepatoprotective effect in acetaminophen-induced hepatotoxicity in HepG2 (in words)” value (“hepatoprotective effect” below) was “significant hepatoprotective effects”.
For `COc1cc2c(cc1O[C@@H]1O[C@H](CO)[C@@H](O)[C@H](O)[C@H]1O)[C@@]1(O)C(=O)C=CC[C@@H]1CC2` [Compound 9, elatostemanoside I], the “hepatoprotective effect” value was “significant hepatoprotective effects”.
With `COc1cc2c(cc1O[C@@H]1O[C@H](CO)[C@@H](O)[C@H](O)[C@H]1O)[C@@]1(O)C(=O)C=CC[C@H]1CC2` [Compound 11, elatostemanoside K] the “hepatoprotective effect” value was “significant hepatoprotective effects”.
For `OC[C@H]1O[C@@H](Oc2cc3c(cc2O)CCc2cccc(O)c2-3)[C@H](O)[C@@H](O)[C@@H]1O` [Compound 14, 7,4-dihydroxy-9,10-dihydrophenanthrene 6-O-β-D-glucopyranoside], the “hepatoprotective effect” value was “significant hepatoprotective effects”.

Same assay, conditions: Homo sapiens, HepG2; 50 μM compound, pretreated 8 h, 6 mM APAP for 36 h, MTT; read-out: cell viability (cytoprotection against APAP)
With `COc1cc2c(cc1O[C@@H]1O[C@H](CO)[C@@H](O)[C@H](O)[C@H]1O)[C@@]1(O)C(=O)C[C@H](O)C[C@@H]1CC2` [Compound 1, elatostemanoside A] the viability at 50 µM was 85.6%.
`COc1cc2c(cc1O[C@@H]1O[C@H](CO)[C@@H](O)[C@H](O)[C@H]1O)[C@@]1(O)C(=O)C=CC[C@@H]1CC2` [Compound 9, elatostemanoside I] showed a viability at 50 µM of 82.6%.
`COc1cc2c(cc1O[C@@H]1O[C@H](CO)[C@@H](O)[C@H](O)[C@H]1O)[C@@]1(O)C(=O)C=CC[C@H]1CC2` [Compound 11, elatostemanoside K] showed a viability at 50 µM of 81.6%.
Work on `OC[C@H]1O[C@@H](Oc2cc3c(cc2O)CCc2cccc(O)c2-3)[C@H](O)[C@@H](O)[C@@H]1O` [Compound 14, 7,4-dihydroxy-9,10-dihydrophenanthrene 6-O-β-D-glucopyranoside] yielded a viability at 50 µM of 78.8%.

The compounds below were run against T1, DPP-IV (Homo sapiens, UniProt P27487) (assay: DPP-IV inhibition activity (DPP-IV Activity Assay Kit, AMC fluorescence)). Details: at 150 μM.
T1 construct: purchased BioVision K779-100
T1 sequence (P27487 whole entry, species assumed): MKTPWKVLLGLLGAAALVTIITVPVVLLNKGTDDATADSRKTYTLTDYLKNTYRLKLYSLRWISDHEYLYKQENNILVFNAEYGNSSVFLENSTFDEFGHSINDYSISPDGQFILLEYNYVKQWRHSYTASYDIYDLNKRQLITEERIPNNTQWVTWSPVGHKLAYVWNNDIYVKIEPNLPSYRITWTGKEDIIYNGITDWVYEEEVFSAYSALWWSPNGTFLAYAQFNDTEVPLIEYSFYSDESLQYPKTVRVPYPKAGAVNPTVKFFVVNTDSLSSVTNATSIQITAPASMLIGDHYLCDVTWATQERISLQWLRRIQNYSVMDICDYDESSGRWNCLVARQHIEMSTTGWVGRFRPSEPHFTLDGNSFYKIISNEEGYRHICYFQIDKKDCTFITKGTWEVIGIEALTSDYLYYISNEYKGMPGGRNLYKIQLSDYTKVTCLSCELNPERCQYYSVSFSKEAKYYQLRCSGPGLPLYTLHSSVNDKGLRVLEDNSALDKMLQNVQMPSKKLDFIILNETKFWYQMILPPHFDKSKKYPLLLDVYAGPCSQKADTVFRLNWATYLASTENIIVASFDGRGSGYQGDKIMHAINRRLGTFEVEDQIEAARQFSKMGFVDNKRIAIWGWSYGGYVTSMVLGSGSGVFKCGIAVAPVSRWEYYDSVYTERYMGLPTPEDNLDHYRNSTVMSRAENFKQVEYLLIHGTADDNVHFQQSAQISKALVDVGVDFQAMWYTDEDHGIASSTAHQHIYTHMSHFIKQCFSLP
Format: biochemical
Experimental: 2.7. DPP-IV inhibition activity
A commercially available DPP -IV Activity Assay Kit (K779 -100, BioVision) was employed to evaluate DPP-IV activity. The procedures were conducted according to the manufacturer’s instructions. DPP-IV enzymatically cleaves substrates, leading to the release o f the quenched fluorescent group AMC (7 -Amino-4-Methyl Coumarin). AMC detection was measured with a fluorescence reader at Ex/Em = 360/460 nm. […]
`COc1cc2c(cc1O[C@@H]1O[C@H](CO)[C@@H](O)[C@H](O)[C@H]1O)[C@@]1(O)C(=O)[C@@H](O)[C@H](O)C[C@H]1CC2` [Compound 8, elatostemanoside H] was tested, and the inhibition at 150 µM was at least 50%.
In the case of `COc1cc2c(cc1O[C@@H]1O[C@H](CO)[C@@H](O)[C@H](O)[C@H]1O)[C@@]1(O)C(=O)C[C@@H](O)C[C@H]1CC2` [Compound 6, elatostemanoside F], the inhibition at 150 µM is reported as at least 50%.
Work on `OC[C@H]1O[C@@H](Oc2cc3c(cc2O)CCc2cccc(O)c2-3)[C@H](O)[C@@H](O)[C@@H]1O` [Compound 14, 7,4-dihydroxy-9,10-dihydrophenanthrene 6-O-β-D-glucopyranoside] yielded an inhibition at 150 µM of at least 50%.
For `COc1cc2c(cc1O[C@@H]1O[C@H](CO)[C@@H](O)[C@H](O)[C@H]1O)[C@@]1(O)C(=O)C[C@H](O)C[C@H]1CC2` [Compound 5, elatostemanoside E], the inhibition at 150 µM was at least 50%.

Same assay, conditions: at 400 μM
`COc1cc2c(cc1O[C@@H]1O[C@H](CO)[C@@H](O)[C@H](O)[C@H]1O)[C@@]1(O)C(=O)C[C@H](O)C[C@@H]1CC2` [Compound 1, elatostemanoside A] was tested, and the inhibition at 400 µM was over 50%.
With `COc1cc2c(cc1O[C@@H]1O[C@H](CO)[C@@H](O)[C@H](O)[C@H]1O)[C@@]1(O)C(=O)C[C@@H](O)C[C@@H]1CC2` [Compound 2, elatostemanoside B] the inhibition at 400 µM was over 50%.
`COc1cc2c(cc1OC1OC(CO)C(O)C(O)C1O)C1(O)C(=O)CC(C3=CCC4CCc5cc(OC)c(OC6OC(CO)C(O)C(O)C6O)cc5C4(O)C3=O)CC1CC2` (centres unmarked) [Compound 16, elatostemanoside P] was tested, and the inhibition at 400 µM was over 50%.
`COc1cc2c(cc1O[C@@H]1O[C@H](CO[C@@H]3O[C@@H](C)[C@H](O)[C@@H](O)[C@H]3O)[C@@H](O)[C@H](O)[C@H]1O)-c1c(O)cccc1CC2` [Compound 15, elatostemanoside O] gave an inhibition at 400 µM of over 50%.
`COc1cc2c(cc1O[C@@H]1O[C@H](CO)[C@@H](O)[C@H](O)[C@H]1O)[C@@]1(OC)C(=O)C=CC[C@@H]1CC2` [Compound 10, elatostemanoside J] was tested, and the inhibition at 400 µM was over 50%.
For `COc1cc2c(cc1O[C@@H]1O[C@H](CO)[C@@H](O)[C@H](O)[C@H]1O)[C@@]1(O)C(=O)[C@@H](O)[C@H](O)C[C@H]1CC2` [Compound 8, elatostemanoside H], the inhibition at 400 µM was over 50%.
`COc1cc2c(cc1O[C@@H]1O[C@H](CO)[C@@H](O)[C@H](O)[C@H]1O)[C@@]1(O)C(=O)C[C@@H](O)C[C@H]1CC2` [Compound 6, elatostemanoside F] was tested, and the inhibition at 400 µM was over 50%.
`OC[C@H]1O[C@@H](Oc2cc3c(cc2O)CCc2cccc(O)c2-3)[C@H](O)[C@@H](O)[C@@H]1O` [Compound 14, 7,4-dihydroxy-9,10-dihydrophenanthrene 6-O-β-D-glucopyranoside] was tested, and the inhibition at 400 µM was over 50%.
`COc1cc2c(cc1O[C@@H]1O[C@H](CO)[C@@H](O)[C@H](O)[C@H]1O)[C@@]1(O)C(=O)C[C@H](O)C[C@H]1CC2` [Compound 5, elatostemanoside E] gave an inhibition at 400 µM of over 50%.

Same assay, conditions: pure compounds
For `COc1cc2c(cc1O[C@@H]1O[C@H](CO)[C@@H](O)[C@H](O)[C@H]1O)[C@@]1(O)C(=O)[C@@H](O)[C@H](O)C[C@H]1CC2` [Compound 8, elatostemanoside H], the IC50 was 108 ± 19.6 µM.
With `COc1cc2c(cc1O[C@@H]1O[C@H](CO)[C@@H](O)[C@H](O)[C@H]1O)[C@@]1(O)C(=O)C[C@@H](O)C[C@H]1CC2` [Compound 6, elatostemanoside F] the IC50 was 151 ± 11.8 µM.
Compound `OC[C@H]1O[C@@H](Oc2cc3c(cc2O)CCc2cccc(O)c2-3)[C@H](O)[C@@H](O)[C@@H]1O` [Compound 14, 7,4-dihydroxy-9,10-dihydrophenanthrene 6-O-β-D-glucopyranoside] has an IC50 of 71.9 ± 8.9 µM.
In the case of `COc1cc2c(cc1O[C@@H]1O[C@H](CO)[C@@H](O)[C@H](O)[C@H]1O)[C@@]1(O)C(=O)C[C@H](O)C[C@H]1CC2` [Compound 5, elatostemanoside E], the IC50 is reported as 142 ± 15.6 µM.

Same assay, conditions: summary
For `COc1cc2c(cc1O[C@@H]1O[C@H](CO)[C@@H](O)[C@H](O)[C@H]1O)[C@@]1(O)C(=O)[C@@H](O)[C@H](O)C[C@H]1CC2` [Compound 8, elatostemanoside H], the “DPP-IV inhibition (in words)” value was “weak effects”.
For `COc1cc2c(cc1O[C@@H]1O[C@H](CO)[C@@H](O)[C@H](O)[C@H]1O)[C@@]1(O)C(=O)C[C@@H](O)C[C@H]1CC2` [Compound 6, elatostemanoside F], the “DPP-IV inhibition (in words)” value was “weak effects”.
`OC[C@H]1O[C@@H](Oc2cc3c(cc2O)CCc2cccc(O)c2-3)[C@H](O)[C@@H](O)[C@@H]1O` [Compound 14, 7,4-dihydroxy-9,10-dihydrophenanthrene 6-O-β-D-glucopyranoside] was tested, and the “DPP-IV inhibition (in words)” value was “moderate inhibition”.
With `COc1cc2c(cc1O[C@@H]1O[C@H](CO)[C@@H](O)[C@H](O)[C@H]1O)[C@@]1(O)C(=O)C[C@H](O)C[C@H]1CC2` [Compound 5, elatostemanoside E] the “DPP-IV inhibition (in words)” value was “weak effects”.
